Legend:
RBL-2H3 = experiment: Antihistaminic activity in rat RBL2H3 cells assessed as inhibition of DNP-BSA-induced beta-hexosaminidase release preincubated for 10 mins before DNP-BSA challenge; format: functional, cell-based
[1] = Cytotoxicity against rat RBL2H3 cells at 500 uM by optical microscope; format: cell-based; conditions: rbl-2h3, 500 µM

| IC50 (RBL-2H3) [µM] | SMILES | Activity [1] |
| --- | --- | --- |
| 124 | O=c1cc(-c2ccc(O)cc2)oc2cc(O)cc(O)c12 [APIGENIN] | Non-toxic |
| > 500 | COc1cc(OC)cc(-c2cc(=O)c3ccccc3o2)c1 [3',5'-DIMETHOXYFLAVONE] | Non-toxic |
| > 500 | COc1ccc(-c2cc(=O)c3c(OC)c(OC)c(OC)c(OC)c3o2)cc1 [TANGERETIN] | Non-toxic |
| > 500 | COc1c(OC)c(O)c2c(=O)cc(-c3ccc(O)c(O)c3)oc2c1OC [SIDERITIFLAVONE] | Non-toxic |
| 67.2 | O=c1cc(-c2ccc(O)cc2)oc2cc(O)c(O)c(O)c12 [SCUTELLAREIN] | Non-toxic |
| 179 | O=c1cc(-c2ccccc2)oc2cc(O)c(O)c(O)c12 [BAICALEIN] | Non-toxic |
| 161 | COc1cc2oc(-c3ccc(O)cc3)cc(=O)c2c(O)c1OC [CIRSIMARITIN] | Non-toxic |
| 1540 | O=C(O)c1cc(=O)c2c(OCC(O)COc3cccc4oc(C(=O)O)cc(=O)c34)cccc2o1 [CROMOLYN SODIUM] |  |
| > 500 | O=c1cc(-c2ccccc2)oc2cc(O)cc(O)c12 [CHRYSIN] | Non-toxic |

Second part, the compound before the results:

| SMILES | IC50 (RBL-2H3) [µM] | Activity [1] |
| --- | --- | --- |
| COc1cc(-c2cc(=O)c3c(O)cc(O)cc3o2)cc(OC)c1OC | 424 | Non-toxic |
| COc1ccc(-c2cc(=O)c3ccccc3o2)cc1OC [3',4'-DIMETHOXYFLAVONE] | > 500 | Non-toxic |
| COc1cc(OC)cc(-c2cc(=O)c3c(O)cc(O)cc3o2)c1 | > 500 | Non-toxic |
| COc1cc(-c2cc(=O)c3ccccc3o2)cc(OC)c1O | 97.5 | Non-toxic |
| COc1c(OC)c(OC)c2c(=O)cc(-c3ccc(O)c(O)c3)oc2c1OC | 203 | Non-toxic |
| COc1cc(-c2oc3cc(O)cc(O)c3c(=O)c2C(C)=O)cc(OC)c1O | 212 | Non-toxic |
| COc1ccc(-c2cc(=O)c3c(O)cc(O)cc3o2)cc1OC | > 500 | Non-toxic |
| O=c1cc(-c2ccc(O)c(O)c2)oc2cc(O)cc(O)c12 [LUTEOLIN] | 58.2 | Non-toxic |
| COc1cc(-c2cc(=O)c3c(O)cc(O)cc3o2)cc(OC)c1O [TRICIN] | 4.83 | Non-toxic |
| O=c1cc(-c2cc([N+](=O)[O-])cc([N+](=O)[O-])c2)oc2cc(O)cc(O)c12 | > 500 | Non-toxic |

Source: ChEMBL document CHEMBL1147225, “Tricin from a malagasy connaraceous plant with potent antihistaminic activity” (J Nat Prod, 2003)
